Numbers after ± are expanded uncertainties.
Legend:
[1] = xn = mol fraction of the nth substance listed; details: 298.15 K, 101 kPa, Liquid
[2] = excess molar enthalpy (molar enthalpy of mixing); xn = mol fraction of the nth substance listed; details: 298.15 K, 101 kPa, Liquid

BrCCBr [1,2-dibromoethane] + CCCC(=O)OC
Details	excess molar enthalpy [kcal/mol]	mass density [kg/m3]
[1], x2 = 0.0456	–	2090.91 ± 9.1
[1], x2 = 0.0934	–	2013.52 ± 8.3
[1], x2 = 0.138	–	1943.4 ± 7.6
[1], x2 = 0.1885	–	1866.04 ± 6.8
[1], x2 = 0.2437	–	1784.45 ± 6.1
[1], x2 = 0.2925	–	1714.77 ± 5.5
[1], x2 = 0.3454	–	1641.47 ± 4.9
[1], x2 = 0.4047	–	1562.1 ± 4.2
[1], x2 = 0.5193	–	1415.94 ± 3.2
[1], x2 = 0.5812	–	1340.87 ± 2.7
[1], x2 = 0.6461	–	1264.87 ± 2.2
[1], x2 = 0.7118	–	1190.49 ± 1.8
[1], x2 = 0.7767	–	1119.58 ± 1.4
[1], x2 = 0.8458	–	1046.47 ± 1
[1], x2 = 0.9209	–	970.06 ± 0.86
[2], x2 = 0.0509	0.0049 ± 0.000454	–
[2], x2 = 0.1042	0.00772 ± 0.000502	–
[2], x2 = 0.1621	0.00858 ± 0.000502	–
[2], x2 = 0.2266	0.00748 ± 0.000478	–
[2], x2 = 0.2928	0.00418 ± 0.00043	–
[2], x2 = 0.3635	-0.00086 ± 0.000382	–
[2], x2 = 0.4243	-0.00672 ± 0.000478	–
[2], x2 = 0.4796	-0.0115 ± 0.00055	–
[2], x2 = 0.537	-0.0148 ± 0.000598	–
[2], x2 = 0.6008	-0.0165 ± 0.000621	–
[2], x2 = 0.6755	-0.0168 ± 0.000621	–
[2], x2 = 0.7537	-0.0152 ± 0.000598	–
[2], x2 = 0.8373	-0.0118 ± 0.00055	–
[2], x2 = 0.9188	-0.00707 ± 0.000478	–

BrCCBr [1,2-dibromoethane] + CCC(=O)OC
Details	excess molar enthalpy [kcal/mol]	mass density [kg/m3]
[1], x2 = 0.0544	–	2090.48 ± 9.1
[1], x2 = 0.1086	–	2015.14 ± 8.2
[1], x2 = 0.1617	–	1942.18 ± 7.5
[1], x2 = 0.213	–	1872.81 ± 6.8
[1], x2 = 0.2714	–	1794.99 ± 6.1
[1], x2 = 0.3254	–	1724.12 ± 5.4
[1], x2 = 0.4447	–	1570.72 ± 4.2
[1], x2 = 0.5056	–	1494.18 ± 3.6
[1], x2 = 0.561	–	1425.55 ± 3.2
[1], x2 = 0.6166	–	1357.57 ± 2.7
[1], x2 = 0.6838	–	1276.41 ± 2.2
[1], x2 = 0.743	–	1205.94 ± 1.8
[1], x2 = 0.8086	–	1129 ± 1.4
[1], x2 = 0.8715	–	1056.36 ± 1.1
[1], x2 = 0.9358	–	982.68 ± 0.84
[2], x1 = 0.0552	0.0107 ± 0.00108	–
[2], x1 = 0.1177	0.0166 ± 0.00127	–
[2], x1 = 0.18	0.0207 ± 0.00139	–
[2], x1 = 0.2446	0.0215 ± 0.00141	–
[2], x1 = 0.3072	0.0203 ± 0.00136	–
[2], x1 = 0.3659	0.0179 ± 0.00129	–
[2], x1 = 0.4203	0.0141 ± 0.00117	–
[2], x1 = 0.4702	0.00939 ± 0.00105	–
[2], x1 = 0.4789	0.00657 ± 0.000956	–
[2], x1 = 0.5086	0.00466 ± 0.000884	–
[2], x1 = 0.5255	0.00246 ± 0.000813	–
[2], x1 = 0.5837	-0.00251 ± 0.000813	–
[2], x1 = 0.6456	-0.00514 ± 0.000908	–
[2], x1 = 0.7119	-0.00614 ± 0.000932	–
[2], x1 = 0.7852	-0.00672 ± 0.000956	–
[2], x1 = 0.8597	-0.00547 ± 0.000908	–
[2], x1 = 0.9321	-0.00287 ± 0.000837	–

BrCCCCBr [1,4-dibromobutane] + CCCCC(=O)OC
Details	excess molar enthalpy [kcal/mol]	mass density [kg/m3]
[1], x2 = 0.0627	–	1757.47 ± 6.4
[1], x2 = 0.1071	–	1711.91 ± 6
[1], x2 = 0.1637	–	1654.55 ± 5.4
[1], x2 = 0.2171	–	1601.18 ± 4.9
[1], x2 = 0.3252	–	1495.18 ± 4
[1], x2 = 0.4423	–	1383.13 ± 3.1
[1], x2 = 0.5031	–	1326.06 ± 2.7
[1], x2 = 0.621	–	1217.29 ± 2
[1], x2 = 0.6839	–	1160.44 ± 1.6
[1], x2 = 0.7415	–	1108.9 ± 1.3
[1], x2 = 0.8021	–	1055.26 ± 1.1
[1], x2 = 0.9296	–	944.62 ± 0.91
[2], x2 = 0.0592	0.0081 ± 0.000502	–
[2], x2 = 0.1366	0.0138 ± 0.000598	–
[2], x2 = 0.2206	0.0173 ± 0.000645	–
[2], x2 = 0.3061	0.0161 ± 0.000621	–
[2], x2 = 0.3802	0.0125 ± 0.000574	–
[2], x2 = 0.4461	0.00566 ± 0.000454	–
[2], x2 = 0.4526	0.00449 ± 0.000454	–
[2], x2 = 0.4992	-0.00124 ± 0.000382	–
[2], x2 = 0.5566	-0.00686 ± 0.000478	–
[2], x2 = 0.6213	-0.0107 ± 0.000526	–
[2], x2 = 0.6979	-0.0116 ± 0.00055	–
[2], x2 = 0.7947	-0.0115 ± 0.00055	–
[2], x2 = 0.9001	-0.0075 ± 0.000478	–

BrCCCCBr [1,4-dibromobutane] + CCCC(=O)OC
Details	excess molar enthalpy [kcal/mol]	mass density [kg/m3]
[1], x2 = 0.121	–	1710.83 ± 5.9
[1], x2 = 0.1809	–	1656.55 ± 5.3
[1], x2 = 0.2384	–	1604.18 ± 4.9
[1], x2 = 0.2953	–	1552.31 ± 4.4
[1], x2 = 0.3601	–	1492.93 ± 3.9
[1], x2 = 0.4182	–	1439.44 ± 3.5
[1], x2 = 0.4848	–	1377.96 ± 3
[1], x2 = 0.5382	–	1328.46 ± 2.7
[1], x2 = 0.5989	–	1272 ± 2.3
[1], x2 = 0.653	–	1221.36 ± 2
[1], x2 = 0.7699	–	1111.48 ± 1.3
[1], x2 = 0.8252	–	1059.19 ± 1.1
[1], x2 = 0.8804	–	1006.8 ± 0.81
[2], x2 = 0.0662	0.0111 ± 0.00055	–
[2], x2 = 0.1525	0.019 ± 0.000669	–
[2], x2 = 0.2456	0.0232 ± 0.000741	–
[2], x2 = 0.3392	0.0233 ± 0.000741	–
[2], x2 = 0.4222	0.019 ± 0.000669	–
[2], x2 = 0.4708	0.0156 ± 0.000621	–
[2], x2 = 0.5515	0.00743 ± 0.000478	–
[2], x2 = 0.6276	0.000621 ± 0.000382	–
[2], x2 = 0.6882	-0.00366 ± 0.00043	–
[2], x2 = 0.7845	-0.0054 ± 0.000454	–
[2], x2 = 0.8702	-0.00452 ± 0.00043	–
[2], x2 = 0.9455	-0.00256 ± 0.000406	–

— the NIST ThermoML archive (doi:10.1016/j.jct.2006.05.004)
